According to PMC9308409 (Communications Biology, 2022):
Values joined by “and” are separate entries in the source; they are usually repeats but may differ in a detail not shown here. Identical values can stand only once. Like-named read-outs stand apart in the source and are kept apart here.

Tests used:
[1] = target: T1, human TPC2 L11A/L12A (TPC2^PM) (Homo sapiens, UniProt Q8NHX9, L11A/L12A); assay: Inside-out patch-clamp of PI(3,5)P2-induced TPC2^PM Na+ currents (WT pore); assay type: cell-based; settings: for current, trace of PI103 on WT TPC2 channel: voltage -1.20E+02, successive trace points
T1 construct: FLAG (C); V5 (C); expressed in transfected cells; host or cells: HEK293
T1 sequence (Q8NHX9 whole entry L11A/L12A): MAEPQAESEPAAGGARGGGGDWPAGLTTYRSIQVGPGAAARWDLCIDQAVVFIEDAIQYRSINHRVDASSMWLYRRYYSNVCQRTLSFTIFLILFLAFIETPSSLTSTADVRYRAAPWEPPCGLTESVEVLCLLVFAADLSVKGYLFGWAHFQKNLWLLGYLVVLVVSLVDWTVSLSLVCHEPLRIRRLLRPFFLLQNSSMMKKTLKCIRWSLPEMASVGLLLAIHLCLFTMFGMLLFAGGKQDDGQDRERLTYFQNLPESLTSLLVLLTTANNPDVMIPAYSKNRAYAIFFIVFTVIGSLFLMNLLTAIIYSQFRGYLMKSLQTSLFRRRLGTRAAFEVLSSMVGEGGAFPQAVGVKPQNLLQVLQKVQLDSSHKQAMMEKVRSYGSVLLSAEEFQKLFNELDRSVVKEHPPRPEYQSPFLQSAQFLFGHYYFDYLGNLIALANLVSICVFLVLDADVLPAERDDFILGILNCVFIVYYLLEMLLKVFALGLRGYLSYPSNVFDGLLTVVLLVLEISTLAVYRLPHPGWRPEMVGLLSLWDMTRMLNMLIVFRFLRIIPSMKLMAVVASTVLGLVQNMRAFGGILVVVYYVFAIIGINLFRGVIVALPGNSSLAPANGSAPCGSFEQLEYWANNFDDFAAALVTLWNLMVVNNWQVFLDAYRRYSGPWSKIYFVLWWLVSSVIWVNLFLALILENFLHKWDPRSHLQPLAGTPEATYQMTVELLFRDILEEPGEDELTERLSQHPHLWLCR
Protocol: (§1) After 24 h of transfection, human TPC1^PM or TPC2^PM channel currents were acquired at room temperature using an EPC-10 amplifier and PatchMaster software (HEKA) or a MultiClamp 700B amplifier and pCLAMP software (Axon Instruments). […] Patch pipettes were polished with a resistance of 2–3 MΩ for recording. Similarly, for whole-cell recording to allow inhibitor application on the extracellular side, the K^+-based solution was used as the pipette solution, and the Na^+-based solution was used in the bath.
Dose curves were fitted by the Hill logistic equation. τon and τoff were acquired from singe exponential fitting.

[2] = target: T2, human TPC2^PM Y312A mutant (Homo sapiens, UniProt Q8NHX9, L11A/L12A/Y312A); assay: Inside-out patch-clamp, PI(3,5)P2-activated TPC2^PM Y312A; assay type: cell-based; settings: for current, trace of PI103 on Y312A of TPC2 channel: successive trace points
T2 construct: FLAG (C); V5 (C); expressed in transfected cells; host or cells: HEK293
T2 sequence (Q8NHX9 whole entry L11A/L12A/Y312A): as the sequence (Q8NHX9 whole entry L11A/L12A) above, with Y312A counted along it
Protocol: as §1

[3] = target: T3, human TPC2^PM H699A mutant (Homo sapiens, UniProt Q8NHX9, H699A/L11A/L12A); assay: Inside-out patch-clamp, PI(3,5)P2-activated TPC2^PM H699A; assay type: cell-based; settings: for current, trace of PI103 on H699A of TPC2 channel: voltage -1.20E+02, successive trace points
T3 construct: FLAG (C); V5 (C); expressed in transfected cells; host or cells: HEK293
T3 sequence (Q8NHX9 whole entry L11A/L12A/H699A): as the sequence (Q8NHX9 whole entry L11A/L12A) above, with H699A counted along it
Protocol: as §1

[4] = target: T4, human TPC2^PM Y312A/H699A mutant (Homo sapiens, UniProt Q8NHX9, H699A/L11A/L12A/Y312A); assay: Inside-out patch-clamp, PI(3,5)P2-activated TPC2^PM Y312A/H699A; assay type: cell-based; settings: 0.3 μM PI(3,5)P2 alone, trace, voltage -1.20E+02
T4 construct: FLAG (C); V5 (C); expressed in transfected cells; host or cells: HEK293
T4 sequence (Q8NHX9 whole entry L11A/L12A/Y312A/H699A): as the sequence (Q8NHX9 whole entry L11A/L12A) above, with Y312A, H699A counted along it
Protocol: as §1

[5] = target: T5, human TPC2 (Homo sapiens, UniProt Q8NHX9); assay: Imaging of NAADP-evoked Ca2+ elevation (GCaMP6f) after microinjection in TPC2-expressing HEK293 cells; assay type: cell-based
T5 construct: FLAG (C); V5 (C); expressed in transfected cells; host or cells: HEK293
T5 sequence (Q8NHX9 whole entry): as the sequence (Q8NHX9 whole entry L11A/L12A) above, with A11L, A12L counted along it
Protocol: Ca^2+ imaging analysis of NAADP-evoked Ca^2+ elevation was performed as we recently described. Briefly, cells were co-transfected with cDNA constructs of human TPC2 and the Ca^2+ reporter GCaMP6f, and the transfected cells were identified by GCaMP6f fluorescence. Fluorescence was monitored with an Axio Observer A1 microscope equipped with an AxioCam MRm digital camera and ZEN Blue 2 software containing a physiology module (Carl Zeiss) at a sampling frequency of 2 Hz. Cell injection was performed with a FemtoJet microinjector (Eppendorf). The pipette solution contained 110 mM KCl, 10 mM NaCl, and 20 mM Hepes (pH 7.2) supplemented with Dextran (10,000 MW)-Texas Red (0.3 mg/ml) and NAADP (100 nM) or vehicle. When needed, 10 µM YM201626 or apilimod at was added to the pipette solution. […] To minimize interference by contaminated Ca^2+, the pipette solution was always treated with Chelex 100 resin (#C709, Sigma-Aldrich) immediately before use. Microinjection (0.5 s at 150 hPa) was made ~30 s after pipette tip insertion into cells. […] Successful injection was verified by fluorescence of the co-injected Texas Red. Elevation in intracellular Ca^2+ concentration was reported by a change in fluorescence intensity measured as ΔF/F0, calculated from NAADP microinjection-induced maximal changes in fluorescence (ΔF at the peak) divided by the fluorescence immediately before microinjection (F0).

[6] = target: T1, human TPC2 L11A/L12A (TPC2^PM); assay: Whole cell patch-clamp of NAADP (microinjection)-induced TPC2^PM currents in HEK293 cells; assay type: cell-based; design: averaged NAADP-induced whole cell current trace: unit not given here
Protocol: Whole cell patch-clamp recording of the NAADP (microinjection)-induced TPC2^PM currents was performed as we reported. […] The cells were visualized under an infrared differential interference contrast optics microscope (Zeiss). Currents were recorded by voltage ramps from −120 to +120 mV over 400 ms for every 2 s with a holding potential of 0 mV. After a whole cell recording configuration was achieved, an injection pipette was inserted into the cell and the baseline of the whole cell current was recorded. Microinjection of NAADP was performed as above in imaging analysis of NAADP-evoked Ca^2+ release. The NAADP-induced currents were obtained by subtraction of the baseline from NAADP injection-induced currents.

[7] = tested on: lysosomal TPC2; settings: cited from earlier work
[8] = tested on: Ebola virus; settings: read-out: IC50 virus entry; cited from earlier work
[9] = tested on: TPCs; settings: read-out: IC50 inhibition of TPCs; cited from earlier work

Oc1cccc(-c2nc(N3CCOCC3)c3oc4ncccc4c3n2)c1 [PI-103]
fold higher IC50 than that of YM201636 ([1]; WT TPC2^PM): 4 fold | IC50 ([1]; read-out: IC50 for inhibition of PI(3,5)P2-induced human TPC2 channel Na+ currents): 0.64 µM | IC50 [2]: 13.9 µM | channel's blockade in H699A mutant ([3]; 0.3 μM PI(3,5)P2, inside-out): largely abolished

CCCCCCCC(=O)OC[C@H](COP(=O)(O)OC1[C@H](O)[C@H](OP(=O)(O)O)C(O)[C@H](OP(=O)(O)O)[C@H]1O)OC(=O)CCCCCCC (some centres unmarked) [PI(3,5)P2, phosphatidylinositol 3,5-bisphosphate]
deactivation rate τoff on wash-off ([1]; 1.0 μM PI(3,5)P2, n = 7): 20.8 ± 0.9 s | activation rate τon of human TPC2 channels ([1]; 1.0 μM PI(3,5)P2 from cytosolic side, n = 8): 9.0 ± 0.5 s | kinetics (Tau) of TPC2PM currents, mean value ([1]; PI(3,5)P2 wash on): 9.035 | Tau of TPC2PM currents, PI(3,5)P2 wash on after Y201636, single cells ([1]; individual cells 1-5, Fig 3D): 48.718 and 63.746 and 69.896 and 56.91 and 53.316 | Tau of TPC2PM currents, PI(3,5)P2 wash off, single cells ([1]; individual cells 1-7, Fig 3D): 21.372 and 18.6234 and 21.6704 and 18.1982 and 20.854 and 19.4692 and 25.31 | Tau of TPC2PM currents, PI(3,5)P2 wash on, single cells ([1]; individual cells 1-8, Fig 3D): 8.4824 and 9.9858 and 7.6828 and 7.7804 and 8.8206 and 10.9364 and 11.3272 and 7.265 | Averaged kinetics (Tau) of TPC2PM currents, PI(3,5)P2 wash on after YM201636, mean value ([1]; mean, 5 cells, Fig 3D): 11.9903 | Averaged kinetics (Tau) of TPC2PM currents, PI(3,5)P2 wash off, mean value ([1]; mean, 7 cells, Fig 3D): 20.7853 | Averaged kinetics (Tau) of TPC2PM currents, PI(3,5)P2 wash on, mean value ([1]; mean, 8 cells, Fig 3D): 9.035 | current(A) ([2]; Y312A TPC2, 0.3 μM PI(3,5)P2 alone, trace, voltage -1.20E+02): -2.83E-09 A | current(A) [4]: -4.54E-09 A

Cc1cccc(/C=N/Nc2cc(N3CCOCC3)nc(OCCc3ccccn3)n2)c1 [apilimod]
reduction of the NAADP-evoked Ca2+ elevation ([5]; 1 µM microinjected together with NAADP (100 nM), HEK293 cells): largely unaffected | NAADP-evoked calcium elevation (change in Ca2+ indicator fluorescence), individual cells ([5]; Fig 1B source data, 1 µM microinjected with NAADP): 2.593 and 3.9665 and 6.13 and 1.0864 and 2.248 and 3.0742 | inhibition of the NAADP-induced TPC2^PM currents ([6]; 1 µM in bath solution ~10 min, whole cell, −120 mV): little effect | averaged NAADP-induced whole cell current trace ([6]; 1 uM, Voltage -119.76): -0.4148 | averaged NAADP-induced whole cell current trace ([6]; 1 uM, Voltage -119.82): -0.4172 | averaged NAADP-induced whole cell current trace ([6]; 1 uM, Voltage -119.88): -0.4198 | averaged NAADP-induced whole cell current trace ([6]; 1 uM, Voltage -119.94): -0.4267 | averaged NAADP-induced whole cell current trace ([6]; 1 uM, Voltage -120, Fig 1C source data): -0.4289 | I, current density of NAADP-induced whole cell TPC2^PM currents, individual cells ([6]; 1 uM, −120 mV, Fig 1D source data): 94.6904 pA/pF and 47.5492 pA/pF and 12.9726 pA/pF and 46.7536 pA/pF and 31.7662 pA/pF and 23.2025 pA/pF

COc1cc2c(cc1Oc1ccccc1)C(Cc1ccc(Oc3ccccc3)cc1)N(C)CC2 (centres unmarked) [SG-094]
inhibition of (lysosomal) TPC2 currents ([7]; 10 µM): ~ 75%

COc1ccc([C@H]2N[C@H](C(=O)O)Cc3c2[nH]c2ccccc32)cc1CN1CCN(c2ccccc2F)CC1 [Ned-19]
inhibition of lysosomal TPC2 activity ([7]; 200 µM): ~ 75%

Oc1cccc(-c2nc(N3CCOCC3)c3oc4ncccc4c3n2)c1 [PI103]
current, trace of PI103 on WT TPC2 channel ([1]; 0.3 μM PI(3,5)P2 + 0.2 μM PI103): -1.97E-09 A | current, trace of PI103 on WT TPC2 channel ([1]; 0.3 μM PI(3,5)P2 + 0.5 μM PI103): -1.21E-09 A | current, trace of PI103 on Y312A of TPC2 channel ([2]; 0.3 μM PI(3,5)P2 + 2.0 μM PI103, voltage -1.20E+02): -3.13E-09 A | current, trace of PI103 on Y312A of TPC2 channel ([2]; 0.3 μM PI(3,5)P2 + 5.0 μM PI103, voltage -1.20E+02): -1.87E-09 A | current, trace of PI103 on Y312A of TPC2 channel ([2]; 0.3 μM PI(3,5)P2 + 20.0 μM PI103, voltage -1.20E+02): -1.61E-09 A | current, trace of PI103 on H699A of TPC2 channel ([3]; 0.3 μM PI(3,5)P2 + 0.4 μM PI103): -4.01E-09 A | current, trace of PI103 on H699A of TPC2 channel ([3]; 0.3 μM PI(3,5)P2 + 20.0 μM PI103): -3.66E-09 A | current, trace of PI103 on H699A of TPC2 channel ([3]; 0.3 μM PI(3,5)P2 + 50.0 μM PI103): -3.37E-09 A

COc1ccc2cc1Oc1ccc(cc1)C[C@H]1c3cc(c(OC)cc3CCN1C)Oc1c(OC)c(OC)cc3c1[C@H](C2)N(C)CC3 [tetrandrine]
inhibition of (lysosomal) TPC2 currents ([7]; 0.5 µM): 60% | inhibition of (lysosomal) TPC2 currents ([7]; 10 µM): 54% and 50–60% | IC50 [8]: 0.055 µM

O=C1C[C@@H](c2ccc(O)cc2)Oc2cc(O)cc(O)c21 [Naringenin]
IC50 [9]: ~200 µM
